Measurements taken from PMC11671526, “β-caryophyllene sensitizes hepatocellular carcinoma cells to chemotherapeutics and inhibits cell malignancy through targeting MAPK signaling pathway” (Frontiers in Pharmacology, 2024).

Key:
[1] = test system: HL-7702 normal liver cells; test: CCK8 cell viability assay; format: cell-based, human; conditions: Homo sapiens, L02; HL-7702, 48 h, individual treatment; read-out: IC50 (half maximal inhibitory concentration)
Procedure: (§1) Cell viability assay using the CCK8 reagent (Bimake, Shanghai, China) was conducted according to the manufacturer’s instructions. The cell proliferation data were used to calculate the cell viability. Briefly, HepG2, SMMC-7721, and HL-7702 cells with a density of 5 × 10^3 cells/well were seeded into each well of 96-well plates and incubated overnight. […] After 48 h, 10 µL of CCK8 reagent was added to each well, followed by 2 h incubation at 37°C and measurement of absorbance at 450 nm using a microplate reader (Molecular Devices, LLC.). […] The effects of the combinatorial inhibition were visualized by isobologram analyses ([Tallarida, 2001]). […] A line was drawn to link the two IC50 points. […] The dots above, on, or below the line indicate the “antagonistic,” “additive” and “synergistic” effects, respectively. The same method was used to obtain the CI value for the cotreatment of BCP and DDP.

[2] = test system: HepG2 cells; test: CCK8 cell viability assay; format: cell-based, human; conditions: Homo sapiens; HepG2, 48 h, individual treatment; read-out: IC50 (half maximal inhibitory concentration)
Procedure: as §1

[3] = test system: SMMC-7721 cells; test: CCK8 cell viability assay; format: cell-based, human; conditions: Homo sapiens; SMMC-7721, 48 h, individual treatment; read-out: IC50 (half maximal inhibitory concentration)
Procedure: as §1

[4] = test system: HepG2 cells; test: Transwell migration assay; format: cell-based; conditions: Homo sapiens, 48 h, vs ethanol control, read-out: inhibition of cell migration
Procedure: (§2) The transwell migration and invasion experiments were conducted using a 24-well plate (cat# 3422, Corning). HepG2 and SMMC-7721 cells (5 × 10^4) were suspended in 100 µL of medium supplied with ethanol, 150 and 300 µM of BCP and added to the top chamber, while 600 µL of complete medium containing 10% FBS was added into the lower chamber. After 48 h of incubation at 37°C, the cells from the top chamber were carefully removed using a cotton swab, while the cells penetrated through the membrane were fixed using 600 µL of 70% methanol for 15 min. To stain the cells, 600 µL of 0.2% crystal violet was used to treat the Transwell inserts for 10 min, followed by washing and drying, and the membranes of the inserts were photographed using an inverted microscope (Leica DM13000 B). The positive staining area was calculated using ImageJ software.

[5] = test system: SMMC-7721 cells; test: Transwell migration assay; format: cell-based, human; conditions: 48 h, vs ethanol control
Procedure: as §2

[6] = test system: HepG2 cells; test: Matrigel transwell invasion assay; format: cell-based, human; conditions: 48 h, vs control
Procedure: as §2
(§3) For invasion assay, Matrigel (Corning, cat# 356234) was used to precoat the top chamber. Cells (8 × 10^4) were added to the top chamber and the following procedure was the same as the migration assay described above.

[7] = test system: SMMC-7721 cells; test: Matrigel transwell invasion assay; format: cell-based, human; conditions: 48 h, vs control
Procedure: as §2, §3

[8] = test system: HepG2 cells; test: RT-qPCR of MAPK signaling pathway genes; format: cell-based, human; conditions: BCP-treated HepG2 cells vs control cells
Procedure: HepG2 cells were treated by 150 µM BCP or ethanol for 24 h, followed by total RNA extraction using the TRIzol reagent (Thermo Fisher Scientific, cat#15596026). The quality and concentration of RNA were examined by MOPS RNA electrophoresis and Eppendorf BioSpectrometer. The transcriptome analysis was performed by BGI-Wuhan China. The RNA-seq dataset of this study is accessible in the Gene Expression Omnibus (GEO) with an access number of GSE276099. The sequence library for each sample was prepared using the BGISEQ-500 platform with a 50-bp single-end (SE50) format. HISAT (v2.2.1) was used to align the clean reads to the reference genome and alignment of the clean reads to the reference genes was carried out using Bowtie2 (v2.4.5) ([Langmead and Salzberg, 2012]; [Kim et al., 2015]). Gene expression levels were calculated by RSEM (v1.3.1) ([Li and Dewey, 2011]). Analysis of differential gene expression was performed using edgeR in the Bioconductor software package ([Robinson et al., 2010]). Using a standard protocol, the RNA samples were also examined by reverse transcription and quantitative polymerase chain reaction (RT-qPCR). In brief, for reverse transcription, total RNA (1 μg) and gDNA wiper Mix were incubated at 42°C for 2 min. The samples were immediately incubated with a master mix containing 10 pmol/μL of poly (dT) primers at 37°C for 15 min and 85°C for 5 s. […]

[9] = test system: HepG2 cells; test: Colony formation assay with ectopic PGF expression; format: cell-based, human
Source text: The placental growth factor (PGF) coding sequence was amplified using gene specific primers and then subcloned into a lentiviral vector pSL4-Flag expressing the puromycin resistance gene to generate pSL4-Flag-PGF vector with a CMV promoter driving PGF expression. The primers used to amplify the PGF coding sequence, check the amplified DNA fragment and verify its ectopic expression are listed in Supplementary Table S1. Lentiviruses carrying pSL4-Flag-PGF and an empty pSL4-Flag vector were produced and used to infect HCC cells based on our previously reported procedure ([Wan et al., 2012]). Ectopic PGF expression was achieved by infecting HCC cells with pSL4-Flag-PGF lentivirus, and the control cells were produced by infecting HCC cells using lentivirus carrying the empty pSL4-Flag-vector.
HepG2 cells were cultured overnight into 12-well plates with a density of 1×10^3 cells/well. The cells were then individually infected by pSL4-Flag-vector and pSL4-Flag-PGF lentiviruses. After 24 h, the cells were cultured in a complete medium containing 150 µM of BCP or an equal volume of ethanol for 10 days. The plates were washed using ice-cold PBS three times and cells were fixed using 70% ice-cold methanol for 20 min. […] The stained wells were photographed and clonogenicity was analyzed using ImageJ software.

## C=C1CC/C=C(\C)CC[C@@H]2[C@@H]1CC2(C)C [BCP, β-caryophyllene]
[1]
  IC50: 610.9 ± 2.72 µM
[2]
  IC50: 194 ± 3.2 µM
[3]
  IC50: 334.5 ± 2.96 µM
[4]; HepG2, 150 µM
  inhibition at 150 µM: 49%
[4]; HepG2, 300 µM
  inhibition at 300 µM: 75.6%
[5]; SMMC-7721, 150 µM
  reduction of cell migration: 18.06%
[5]; SMMC-7721, 300 µM
  reduction of cell migration: 52.19%
[6]; HepG2, 150 µM
  decrease of Matrigel infiltration (invasion): 46.3%
[6]; HepG2, 300 µM
  decrease of Matrigel infiltration (invasion): 70.03%
[7]; SMMC-7721, 150 µM
  decrease of Matrigel infiltration (invasion): 17.67%
[7]; SMMC-7721, 300 µM
  decrease of Matrigel infiltration (invasion): 49.64%
[8]
  RT-qPCR verification of differential expression of NR4A1, CSF1R, PGF, ARTN, CACNA1E: confirmed
[9]; HepG2 carrying pSL4-vector, 150 µM BCP 10 days, compared to control without BCP
  colony formation: significantly decreased colonies
[9]; HepG2 expressing ectopic PGF vs empty vector, same BCP treatment (150 µM, 10 days)
  colony formation: more colonies
